The subject of assay [1] is Hepatitis B virus. Kind of assay: Hepatoprotective activity against HBV in human HepG2.2.15 cells. The format is functional, organism-based. The conditions noted are these: HepG2 2.2.15.
The subject of assay [2] is Hepatitis B virus. The assay is described as follows: Antiviral activity against hepatitis B virus assessed as inhibition of viral particle production. It is filed as functional, organism-based.

Activity calls are given as the source filed them. The calls are words filed in the database; no cut-off is given here.

`O=C(/C=C/c1ccc(O)c(O)c1)O[C@@H]1C[C@](O)(C(=O)O)C[C@@H](OC(=O)/C=C/c2ccc(O)c(O)c2)[C@H]1O`: the result in the assay on Hepatitis B virus [1] and in the assay on Hepatitis B virus [2] was Active.

On to `O=c1c(O[C@@H]2O[C@H](CO)[C@@H](O)[C@H](O)[C@H]2O)c(-c2ccc(O)c(O)c2)oc2cc(O)cc(O)c12`, for which the result in the assay with Hepatitis B virus [1] and with Hepatitis B virus [2] was Active.

On to `O=C(/C=C/c1ccc(O)c(O)c1)O[C@@H]1C[C@](O)(C(=O)O)C[C@@H](O)[C@H]1O`, for which the outcome with Hepatitis B virus [1] and with Hepatitis B virus [2] was Active.

Turning to `O=C(/C=C/c1ccc(O)cc1)O[C@@H]1C[C@](O)(C(=O)O)C[C@@H](O)[C@H]1O`, the result in the assay on Hepatitis B virus [1] and with Hepatitis B virus [2] was Active.

Consider `O=C(/C=C/c1ccc(O)c(O)c1)O[C@H]1[C@H](O)C[C@](O)(C(=O)O)C[C@H]1OC(=O)/C=C/c1ccc(O)c(O)c1`, for which the outcome with Hepatitis B virus [1] and in the assay with Hepatitis B virus [2] was Active.

Consider `O=C(/C=C/c1ccc(O)c(O)c1)O[C@@H]1C[C@@](O)(C(=O)O)C[C@@H](O)[C@@H]1O`, for which the result with Hepatitis B virus [1] and in the assay with Hepatitis B virus [2] was Active.

In the case of `O=C(/C=C/c1ccc(O)c(O)c1)O[C@@H]1[C@H](O)C[C@@](O)(C(=O)O)C[C@H]1OC(=O)/C=C/c1ccc(O)c(O)c1`, the result in the assay on Hepatitis B virus [1] and with Hepatitis B virus [2] was Active.

Values taken from ChEMBL document CHEMBL1141366, “Isolation of quinic acid derivatives and flavonoids from the aerial parts of Lactuca indica L. and their hepatoprotective activity in vitro” (Bioorg Med Chem Lett, 2007).
